RP-LC retention time data for 80 compounds are collected here from the METLIN SMRT retention time set (Domingo-Almenara et al. 2019).

The data set is described as follows: gradient 5% acetonitrile 3 min, to 50% in 2 min, to 85% in 15 min, held 3 min, 100 µL/min. Particulars: column: Zorbax Extend-C18 2.1 x 50 mm; eluents: water / acetonitrile, 0.1% formic acid. In short, it runs like this:
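Standards, all pure, were combined into mixtures of ~100 molecules and run at 100 μL/min on a Zorbax Extend-C18 column (2.1 × 50 mm, 1.8 μm) with water and acetonitrile, each containing 0.1% formic acid. A coupled quadrupole time-of-flight mass spectrometer operated in positive and negative ionization mode. Retention time values come from computationally picked adduct peaks, each inspected manually.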
Compound `N#Cc1ccccc1NC(=O)COc1ccc(Cl)cc1Cl` came in with an RP-LC retention time of 719 s.
Compound `Cc1ccc(NC(=O)NCCCn2c(C(F)(F)F)nc3cccnc32)cc1F` had an RP-LC retention time of 866 s.
With `CCOc1ccc(C(=O)N2CCN(c3ccc(=O)n(-c4ccc(C(C)C)cc4)n3)CC2)cc1`, the RP-LC retention time is 1000 s.
As for `O=C(CSc1ccc(F)cc1)NCC1CCN(Cc2cccs2)CC1`, the figure is 566 s; as for `COc1cccc2[nH]c(C(=O)NCCC(=O)NCCc3c[nH]c4ccccc34)cc12`, 662 s; as for `Cc1ccc(-c2cc3c(=O)n(Cc4noc(CN5CCC(C)CC5)n4)ccn3n2)cc1C`, 742 s.
As for `CCOC(=O)c1c(CN2CCN(CC#N)CC2)n(C)c2cc(Br)c(OC(C)=O)cc12`, the figure is 706 s; as for `O=C(Nc1ccc(F)c(F)c1)C(=O)c1ccc[nH]1`, 899 s; as for `CC(C)NC(=O)c1ccc(Nc2c(-c3ccc(Cl)cc3)nc3cnccn23)cc1`, 764 s.
The compound `CCOC(=O)c1cnc2nc(C)ccc2c1Nc1cc(F)cc(F)c1` returned an RP-LC retention time of 736 s.
Compound `Cc1ccc(N2CC(c3nc(-c4ccccc4C)no3)CC2=O)cc1F` (stereo not given) gave an RP-LC retention time of 1130 s.
On to `COc1ccccc1-c1noc(C2CCCN2C(=O)Nc2ccccc2)n1` (stereo not given), for which the RP-LC retention time came out at 848 s.
`N#Cc1cccc(NC(=O)Cc2cn3cc(F)ccc3n2)c1` showed an RP-LC retention time of 593 s.
As to `CC1CCN(S(=O)(=O)c2ccc3c(c2)CCCC(=O)N3CC(=O)N2CCOCC2)CC1`, the RP-LC retention time was 768 s.
`CCn1cc2c3c(cccc31)CN(C(=O)Nc1cc(OC)c(OC)c(OC)c1)CC2` yielded an RP-LC retention time of 742 s.
As to `Cc1oc(C(C)C)nc1C(=O)NCc1ccncc1`, the RP-LC retention time is 590 s.
In turn, `CCCNC(=O)Cc1c(C)nn(-c2nc(-c3ccc(Cl)cc3)cs2)c1C` gave an RP-LC retention time of 1110 s.
With `CCOc1ccccc1CNC(=O)C1CCN(Cc2cn(C)c3ccc(Cl)cc23)CC1`, the RP-LC retention time stood at 751 s.
Regarding `O=C(O)/C=C\C(=O)Nc1nccs1`, the RP-LC retention time was 646 s.
As to `CC(C)(C)NC(=O)N1CCC2(CC1)CN(c1ccccc1)C2=O`, the RP-LC retention time came to 788 s.
`Cc1cccc(NS(=O)(=O)c2ccc3nncn3c2)c1` came in with an RP-LC retention time of 673 s.
`Cc1oc2ccn(Cc3ccc(F)cc3)c(=O)c2c1C(=O)NCc1cc(F)cc(F)c1` returned an RP-LC retention time of 1130 s.
`CC1CCCN(CCCNC(=O)c2cccc3c2SCCC3=O)C1` (stereo not given) displayed an RP-LC retention time of 590 s.
To `Cc1ccc(-c2nc(-c3ccc4c(c3)ncn4CCN3CCOCC3)no2)cc1F` belongs 689 s; to `Cc1ccc(S(=O)(=O)N2CCC(CN3CCCC(C)C3)CC2)cc1Cl` (stereo not given), 683 s.
The compound `Cc1ccc(NS(=O)(=O)c2cc(-c3[nH]ncc3C(=O)N3CCCC3)oc2C)cc1C` returned an RP-LC retention time of 776 s.
In turn, `COc1ccccc1CNC(=O)CN1CCN(Cc2ccccc2)C1=O` yielded an RP-LC retention time of 773 s.
In turn, `Cc1cc(C)c2c(N3CCOCC3)nc(C(=O)NCc3ccc(F)cc3F)nc2n1` registered an RP-LC retention time of 651 s.
Take `COc1ccc(Cl)cc1NC(=O)N1CCN(c2cc(C)nc(N3CCOCC3)n2)CC1`: the RP-LC retention time is 659 s.
With `Cc1ccc(CNC(=O)Cc2nnc(-c3ccc4ncccc4c3)o2)cc1`, the RP-LC retention time was determined as 832 s.
In turn, `CCOc1cccc(C2c3[nH]c4ccccc4c3CCN2C(=O)c2cccs2)c1` (stereo not given) returned an RP-LC retention time of 1110 s.
Compound `O=C(CCc1nc(C2=CCN(Cc3ccc(Cl)cc3)CC2)no1)NC1CC1` yielded an RP-LC retention time of 890 s.
The compound `O=C(CNC(=O)c1ccc(F)cc1)Nc1nc2ccccc2[nH]1` yielded an RP-LC retention time of 608 s.
In turn, `CCN(CC)S(=O)(=O)c1cccc(-c2nnc(-c3ccc(OC)c(OC)c3)o2)c1` came in with an RP-LC retention time of 950 s.
In turn, `Cc1oc(-c2ccccc2)nc1Cc1noc(Cc2c[nH]c3ccccc23)n1` had an RP-LC retention time of 1010 s.
To `Cc1nc(-c2cn(C(C)C)c3ncccc23)sc1C(=O)N1CCCC(C)C1` (stereo not given) belongs 1050 s.
The compound `O=C(NCCc1c[nH]c2ccccc12)c1cc(-c2ccc(F)cc2)c[nH]1` displayed an RP-LC retention time of 859 s.
Turning to `Cc1ccsc1C(=O)N1CCC(N2C[C@H](O)C[C@H]2C(=O)NC2CCCCC2)CC1`, the RP-LC retention time was found to be 631 s.
To `COc1ccc(NC(=O)N2C[C@@H]3C[C@H]2C[C@@H]3NS(=O)(=O)c2ccccc2)c(C)c1` belongs 764 s.
As for `Cc1ccc(-c2ncn(C3CCCCC3)c2-c2ccc(C(=O)N3CCN(c4ncccn4)CC3)o2)cc1`, the figure is 748 s; as for `CCCOc1nc2ccccc2nc1N1CCCC(C(=O)Nc2cccc(C)c2C)C1` (stereo not given), 1390 s; as for `O=S(=O)(c1ccc2nc(N3CCN(C4CCCCC4)CC3)cnc2c1)N1CCCCC1`, 705 s.
For the compound `Cc1ccc(NS(=O)(=O)c2cc3c(s2)CCN(C(=O)C2CC2)C3)c(F)c1`, the RP-LC retention time stood at 828 s.
`Cc1cccc(CNC(=O)CCC2CCN(S(=O)(=O)c3ccccc3C)CC2)c1` gave an RP-LC retention time of 982 s.
`Cc1cc(C)c(NC(=O)Cn2c(=O)cc(-c3nc(C4CC4)no3)c3ccccc32)c(C)c1` came in with an RP-LC retention time of 999 s.
On to `CCCN(C)c1nccn2c(=O)n(CC(=O)Nc3ccc(C)c(F)c3)nc12`, for which the RP-LC retention time worked out at 726 s.
Take `CCCCN(C)C(=O)CSc1ncc(S(=O)(=O)c2cccs2)c(N)n1`: the RP-LC retention time was 749 s.
`CCc1ccc(NS(=O)(=O)c2c(C)sc(C)c2-c2cc(C)[nH]n2)cc1` returned an RP-LC retention time of 1130 s.
`COCCNc1nc(-c2ccc([N+](=O)[O-])cc2)nc2ccccc12` registered an RP-LC retention time of 696 s.
In turn, `COc1ccc(C(=O)N2C[C@@H]3C[C@H](NS(=O)(=O)c4ccccc4)[C@H]2C3)cn1` registered an RP-LC retention time of 695 s.
To `Nc1nc(-c2ccccc2)c(C(=O)Nc2ccccc2)s1` belongs 706 s.
`NC(=O)C1CCN(c2cc(-c3nc(-c4ccccc4)no3)c3ccccc3n2)CC1` gave an RP-LC retention time of 765 s.
The compound `CN1CCn2cc(S(=O)(=O)Nc3cccc(C#N)c3)cc2C1=O` came in with an RP-LC retention time of 662 s.
As for `Cc1cc(-c2nnc(-c3ccc(F)cc3)o2)c(C)n1CC(=O)NCC1CCCO1` (stereo not given), the figure is 771 s; as for `COC(=O)c1cncn1C(C)c1ccccc1` (stereo not given), 737 s.
Consider `CN(CC(=O)O)S(=O)(=O)c1ccc(Cl)c(-c2nnc(-c3ccccc3)o2)c1`, for which the RP-LC retention time was found to be 819 s.
For the compound `COc1ccc(-c2noc(CCC(=O)O)n2)cc1`, the RP-LC retention time was determined as 693 s.
As for `COc1ccccc1-c1noc(C2CCCN2C(=O)C2CCC2)n1` (stereo not given), the figure is 831 s.
Consider `Cc1ccc(NC(=O)N2CC(c3nc(C(C)C)nn3C)C2)cc1F`, for which the RP-LC retention time came out at 706 s.
To `CCc1nncn1C1CCN(C(=O)Nc2ccc(Cl)cc2F)C1` (stereo not given) belongs 638 s; to `Fc1ccc(-n2cc(-c3noc(-c4ccccc4)n3)nn2)cc1`, 1040 s.
Compound `Cc1ccc(CNC(=O)C2(C)CCN(S(=O)(=O)c3ccc(C)cc3C)CC2)cc1` had an RP-LC retention time of 1040 s.
Consider `O=S(=O)(c1cccs1)N1CCc2nc(-c3ccc(F)cc3)ncc2C1`, for which the RP-LC retention time was 1030 s.
Compound `O=C(NCc1ccc(F)cc1F)C1CCN(C(=O)c2ncn3c2COC(c2ccc(F)cc2)C3)CC1` (stereo not given) gave an RP-LC retention time of 776 s.
`CN(C)C(CNC(=O)Nc1cccs1)c1cccs1` (stereo not given) returned an RP-LC retention time of 556 s.
Regarding `O=C(Nc1cccc(C(F)(F)F)c1)C1CCc2nc(N3CCOCC3)ncc2C1` (stereo not given), the RP-LC retention time was determined as 900 s.
For the compound `Cc1c(C(=O)N2CCN(C)CC2)cc(-c2ccccc2)n1C`, the RP-LC retention time came out at 612 s.
As for `O=C(NCc1cccc(Br)c1)c1c(O)c2cccnc2[nH]c1=O`, the figure is 1000 s; as for `COc1ccc(-n2nc(SCC(=O)Nc3cc(F)ccc3F)ccc2=O)cc1`, 756 s.
Compound `COc1cccc(-c2noc(C3CC(=O)N(c4ccc5c(c4)OCO5)C3)n2)c1OC` (stereo not given) registered an RP-LC retention time of 871 s.
Compound `COc1ccc(S(=O)(=O)N2CC[C@H](n3c(=O)n(C)c4cccnc43)C2)cc1` displayed an RP-LC retention time of 794 s.
As for `O=C(Cc1ccccc1F)NC(c1ccccc1)c1nnc(N2CCCC2)o1` (stereo not given), the figure is 784 s.
To `O=C(CN(C(=O)c1ccc(F)c(Cl)c1)C1CCCCC1)N1CCNCC1` belongs 659 s; to `COCc1nc2cccnc2n1C1CCN(C(=O)Nc2ccc(OC)cc2OC)CC1`, 638 s; to `CCCCNC(=O)C1CC(=O)N(CCc2c[nH]c3ccc(C)cc23)C1` (stereo not given), 762 s.
For `CCc1nc(-n2cccc2)sc1C(=O)Nc1ccc(C)cc1`, the RP-LC retention time was 949 s.
The compound `Cc1nsc2ncc(C(=O)N3CCOCC3)c(N3CCC(C(=O)Nc4ccc(Cl)cc4)CC3)c12` returned an RP-LC retention time of 846 s.
On to `Cc1nc2c(sc3nc(-c4ccccc4)ccc32)c(=O)n1CC(=O)Nc1ccc(F)cc1Cl`, for which the RP-LC retention time was 1090 s.
`O=C(NCc1ccc(F)cc1)C(=O)NCC(c1ccc2c(c1)OCO2)N1CCOCC1` (stereo not given) gave an RP-LC retention time of 648 s.
`CCOC(=O)N1CCC(NC(=O)CCc2cc3cc(OC)ccc3[nH]c2=O)CC1` returned an RP-LC retention time of 663 s.
